Laboratory results as given in patent publication US20140094434A1, “AMINO ACID COMPOSITION” (AJINOMOTO CO., INC, priority 2011, published 2014).

How the values were obtained:
[1] = tested on: isolated rat hepatocytes; conditions: Biochem. J., 1991, 273: 57-62; cited from earlier work
[2] = humans; ingestion of proline; Metabolism, 2004, 53(2): 241-246; cited from earlier work
[3] = tested on: Male C57BL/6J mice; test: Spontaneous motor activity after 90 minutes treadmill running exercise; type: in vivo, mouse; conditions: Example 5, FIG. 8; oral dextrin 2 g/kg; measured for 3 hours after 90 minutes running; vs water administration
Experimental: Male C57BL/6J mice were habituated to a running exercise using a treadmill, and subjected to a test. The mice were fasted overnight, and orally administered (1) dextrin 2 g/kg, or (2) dextrin 1 g/kg and L-alanine (Ala) 1 g/kg. From 15 minutes after the administration, a 90 minutes running exercise was loaded at a rate of 26 m/minute using the treadmill. After exercise loading, the mice were transferred into a cage, and the motor activity was measured using a spontaneous motor activity monitor (NS-AS01: Neuroscience Inc.) for 3 hours (dextrin and dextrin+Ala in FIG. 8). As a control, the mice administered the above-mentioned (1) or (2) were administered water instead of (1) or (2), and the spontaneous motor activity was measured in the same manner (dextrin (water administration) and dextrin+Ala (water administration) in FIG. 8). In addition, the spontaneous motor activity of mice in a resting state after fasting overnight and free of the exercise loading was measured for 3 hours in the same manner (in rest in FIG. 8).

Row | Molecule | glycogen synthesis [1] | increase of blood glucose level after glucose ingestion [2] | spontaneous motor activity after running exercise loading [3]
1 | N[C@@H](Cc1c[nH]cn1)C(=O)O [histidine] | enhance |  | 
2 | NC(=O)C[C@H](N)C(=O)O [asparagine] | enhance |  | 
3 | C[C@H](N)C(=O)O [alanine] | enhance |  | 
4 | O=C(O)[C@@H]1CCCN1 [proline] | enhance | suppresses | 
5 | NC(=O)CC[C@H](N)C(=O)O [glutamine] | enhance |  | 
6 | dextrin |  |  | increased
